Experimental data as given in patent US20210395327A1, “Growth Hormone-Releasing Hormone Antagonists and Uses Thereof” (United States Government As Represented By The Department …, priority 2019, published 2021).
“Also recorded” adds a separate entry of the source. Non-standard residues stand in square brackets, D forms with d. Residues, ends and D or L forms follow the SMILES beside them. *: point of attachment. Phenylacetyl(2,3,4,5,6-F5) = O=C(Cc1c(F)c(F)c(F)c(F)c1F)*; Phe(F5) = N[C@@H](Cc1c(F)c(F)c(F)c(F)c1F)C(=O)O; Phe(4-Cl) = N[C@@H](Cc1ccc(Cl)cc1)C(=O)O; hArg = N=C(N)NCCCC[C@H](N)C(=O)O; 12Ado = NCCCCCCCCCCCC(=O)O; Nle = CCCC[C@H](N)C(=O)O; Orn = NCCC[C@H](N)C(=O)O; Abu = CC[C@H](N)C(=O)O; PhAc = O=C(Cc1ccccc1)*

What was measured:
[1] = system: GH release from rat pituitary cells; assay: Inhibition of GH release from rat pituitary cells in vitro (GH ELISA); assay type: cell-based; details: for Relative GH release: analogs 20 nM, then with 1 nM GHRH(1-29)NH2 for 30 minutes, Control = 1.00
Procedure: In vitro assessment of the antagonistic activity of GHRH analogs. Rats were decapitated and pituitaries were collected in pre-warmed HBSS (Hanks' Balanced Salt Solution). Tissue was then cut into small pieces and digested in HBSS medium containing 3% BSA, 50 μg/ml gentamycin and 0.5% collagenase for 50 minutes at 37° C. Cells were further dispersed by pipetting and passed through a 100 μm cell strainer with the addition of DMEM containing 50 μg/ml gentamycin. 10% horse serum and 2.5% FBS (growth medium). Cells were harvested at 475×g for 2 minutes, resuspended in fresh growth medium and seeded onto poly-D-lysine-coated 24-well plates (7 pituitaries/plate). Cells were left to recover for 4 days. Growth medium was then replaced with serum-free DMEM for 4 hours and GHRH analogs (at concentration of 20 nM) were added in DMEM containing 0.1% BSA for 30 minutes. Cells were replenished with medium containing the same concentration of the analogs and 1 nM GHRH(1-29)NH2 for 30 minutes. Medium from this step was collected, centrifuged at 800 g for 3 minutes and GH concentration was determined by ELISA (ALPCO Diagnostics, Mill Valley, Calif.) according to the manufacturer's instruction.

[2] = target: T1, membrane GHRH-receptors on human anterior pituitary cells (Homo sapiens, UniProt Q02643); assay: Receptor binding, displacement of 125I-[His1,Nle27]-hGH-RH(1-32)NH2 on human pituitary membranes; details: for binding affinity to membrane receptors of human pituitary cells (in words): competitive binding, human pituitary membrane fractions
T1 construct: Human pituitary was purchased from the National Hormone and Peptide Program; tissue National Hormone and Peptide Program; host or cells: human pituitary (membrane fractions)
T1 sequence (Q02643 23-423): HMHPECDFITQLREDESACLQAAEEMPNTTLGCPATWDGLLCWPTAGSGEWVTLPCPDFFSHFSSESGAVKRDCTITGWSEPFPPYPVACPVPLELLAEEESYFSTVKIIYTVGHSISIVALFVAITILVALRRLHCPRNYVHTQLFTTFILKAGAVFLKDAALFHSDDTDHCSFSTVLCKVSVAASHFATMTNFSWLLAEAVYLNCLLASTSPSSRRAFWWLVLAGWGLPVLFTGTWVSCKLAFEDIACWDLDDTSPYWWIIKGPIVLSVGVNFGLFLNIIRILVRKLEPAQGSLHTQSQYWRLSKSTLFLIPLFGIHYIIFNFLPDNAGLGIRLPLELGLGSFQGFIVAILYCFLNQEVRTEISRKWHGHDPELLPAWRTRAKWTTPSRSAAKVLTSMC
Method in brief: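 Membrane fractions from human pituitary; peptides displace 125I-[His1,Nle27]-hGH-RH(1-32)NH2. IC50 is the dose giving 50% inhibition of specific binding, from duplicate tubes. Relative affinity is the ratio of test IC50 to hGH-RH(1-29)NH2 IC50.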

[3] = system: lung cancer HCC827 xenograft; assay: Xenograft tumor growth in nude mice, HCC827; assay type: in vivo; details: Table 4B, Lung Ca HCC827, 7 weeks, 5 μg/day s.c.; for % Inhibition: vs control
Procedure: The peptides' activity was compared with GHRH antagonist MIA-602. All statistical analyzses were performed from comparing GHRA antagonists to non-treated tumor (control).
Peptides and chemicals. GHRH antagonists MIA-602 and AVR-GHRH antagonists (see Table 2 above) were synthesized by solid phase methods and purified by HPLC. The peptides were dissolved in DMSO and further diluted in 10% 1,2-propanediol. The final concentration of peptides was 50 µg/ml in 10% 1,2-propanediol containing 0.1% of DMSO.
Cell culture. Human cancer cell lines including pancreatic (PANC-1 and CFPAC-1), lung (HCC827 and H460), stomach (NCI-N87), prostate (PC3), brest (MX-1 and HCC-1806), colorectal (HT-29), and ovarian (SK-OV-3 and OVCAR-3) were obtained from the American Type Culture Collection (ATCC) and cultured at 37° C. in a humidified 95% air/5% CO2 atmosphere in the medium recommended by ATCC.
Xenograft models of human cancers in nude mice. Female athymic (NCr nu/nu) nude mice, 5- to 6-weeks-old, obtained from the Envigo labs (Tampa, Fla.), were housed in laminar airflow cabinets under pathogen-free conditions with a 12-h light/12-h dark schedule, and were fed autoclaved standard chow and water. To generate mice with xenografted tumors, tumor xenografts were initiated by subcutaneous (s.c.) injection of 107 human cancer cells into female nude mice. After about 4 weeks the resulting tumors were dissected and collected after removing necrosis tissues. The tumors were then cut into particles with size of 3 mm3 and transplanted s.c. by trocar needle into experimental animals. When tumors grew to the size of 50-60 mm3 (by volume), mice were randomized into groups and treated daily for 4-8 weeks by subcutaneous administration of 5 μg of GHRH antagonists MIA-602 or AVR-compounds (2-10 μg as indicated), or vehicle solutions (0.1% DMSO in 10% 1,2-propanediol) respectively. Tumor sizes were measured weekly.
Statistical analysis. One-way ANOVA followed by Bonferroni comparison were performed. Data are expressed as Mean±SEM. To determine statistical significance between animal groups, two-tailed Student's t-test was conducted. Differences were considered significant when p<0.05.
Results. […] FIG. 1A-N represents in vivo inhibition of tumor growth during the treatment with GHRH antagonist MIA-602 and selected AVR antagonists in nude mice xenografted with various human tumors including pancreatic cancer PANC-1 (FIG. 1A) and CFPAC-1 (FIG. 1I); lung cancer HCC827 (FIGS. 1B, C) and H460 (FIG. 1H); stomach cancer N87 (FIGS. 1D-F); colon cancer HT-29 (FIG. 1G); breast cancer MX-1 and HCC-1806 (FIGS. 1J, K); ovarian cancer SK-OV-3 and OVACAR-3 (FIGS. 1 L, M) and prostate cancer PC3 (FIG. 1N). See also Table 5.

CCCC[C@H](NC(=O)[C@@H](NC(=O)[C@H](CC(=O)O)NC(=O)[C@H](CCC(N)=O)NC(=O)[C@H](CC(C)C)NC(=O)[C@H](CC(C)C)NC(=O)[C@H](CCCN)NC(=O)[C@H](Cc1c[nH]cn1)NC(=O)[C@H](C)NC(=O)[C@H](CO)NC(=O)[C@H](CC(C)C)NC(=O)[C@H](CCC(N)=O)NC(=O)[C@H](CC)NC(=O)[C@H](CC(C)C)NC(=O)[C@@H](NC(=O)[C@H](CCCN)NC(=O)[C@H](Cc1c[nH]cn1)NC(=O)[C@H](Cc1ccc(OC)cc1)NC(=O)[C@H](CCCCNC(=N)N)NC(=O)[C@H](C)NC(=O)[C@@H](NC(=O)[C@H](Cc1c(F)c(F)c(F)c(F)c1F)NC(=O)[C@@H](NC(=O)[C@H](C)NC(=O)[C@H](CC(=O)O)NC(=O)[C@@H](CCCNC(=N)N)NC(=O)[C@H](Cc1ccc(O)cc1)NC(=O)CCCCCCCCCCCNC(=O)Cc1c(F)c(F)c(F)c(F)c1F)[C@@H](C)CC)[C@@H](C)O)C(C)C)[C@@H](C)CC)C(=O)N[C@H](CCCNC(=N)N)C(=O)N[C@@H](CCCCNC(=N)N)C(=O)NCCCCCCCCCCCC(N)=O [AVR-553, 5FPhAC-Ada-Tyr-DArg-Asp-Ala-Ile-5FPhe-Thr-Ala-Har-Tyr(Me)-His-Orn-Val-Leu-Abu-Gln-Leu-Ser-Ala-His-Orn-Leu-Leu-Gln-Asp-Ile-Nle-DArg-Har-Ada-NH2] ({Phenylacetyl(2,3,4,5,6-F5)-12Ado}-Y[dR]DAI[Phe(F5)]TA[hArg]Y(Me)H[Orn]VL[Abu]QLSAH[Orn]LLQDI[Nle][dR][hArg][12Ado]-NH2)
Relative GH release [1]: 0.82 ± 0.04 | binding affinity to membrane receptors of human pituitary cells (in words) [2]: higher binding affinity in comparison to MIA-602; also recorded: highest binding affinities | IC50 ([2]; membrane receptors on human anterior pituitary cells, mean of two to three determinations, read-out: IC50): 0.15 nM | Tumor Growth % [3]: 1132.0% | % Inhibition [3]: 13.7%

CCCC[C@H](NC(=O)[C@@H](NC(=O)[C@H](CC(=O)O)NC(=O)[C@H](CCC(N)=O)NC(=O)[C@H](CC(C)C)NC(=O)[C@H](CC(C)C)NC(=O)[C@H](CCCCN)NC(=O)[C@H](CCCNC(=N)N)NC(=O)[C@H](C)NC(=O)[C@H](CO)NC(=O)[C@H](CC(C)C)NC(=O)[C@H](CCC(N)=O)NC(=O)[C@H](CC)NC(=O)[C@H](CC(C)C)NC(=O)[C@@H](NC(=O)[C@H](CCCCN)NC(=O)[C@H](CCCNC(=N)N)NC(=O)[C@H](Cc1ccc(OC)cc1)NC(=O)[C@H](CCCCNC(=N)N)NC(=O)[C@H](C)NC(=O)[C@@H](NC(=O)[C@H](Cc1c(F)c(F)c(F)c(F)c1F)NC(=O)[C@@H](NC(=O)[C@H](C)NC(=O)[C@H](CC(=O)O)NC(=O)[C@@H](CCCNC(=N)N)NC(=O)[C@H](Cc1ccc(O)cc1)NC(=O)CCCCCCCCCCCNC(=O)Cc1c(F)c(F)c(F)c(F)c1F)[C@@H](C)CC)[C@@H](C)O)C(C)C)[C@@H](C)CC)C(=O)N[C@H](CCCNC(=N)N)C(=O)N[C@@H](CCCCNC(=N)N)C(=O)NC [AVR-235] ({Phenylacetyl(2,3,4,5,6-F5)-12Ado}-Y[dR]DAI[Phe(F5)]TA[hArg]Y(Me)RKVL[Abu]QLSARKLLQDI[Nle][dR][hArg]-NHMe)
Relative GH release [1]: 0.60 ± 0.02 | inhibitory effects on the release of GH, compared with MIA-602 (in words) ([1]; rat pituitary cells in vitro, 20 nM): higher inhibitory effects than MIA-602 | Tumor Growth % [3]: 771.0% | % Inhibition [3]: 41.2%

CCCC[C@H](NC(=O)[C@@H](NC(=O)[C@H](CC(=O)O)NC(=O)[C@H](CCC(N)=O)NC(=O)[C@H](CC(C)C)NC(=O)[C@H](CC(C)C)NC(=O)[C@H](CCCN)NC(=O)[C@H](Cc1c[nH]cn1)NC(=O)[C@H](C)NC(=O)[C@H](CO)NC(=O)[C@H](CC(C)C)NC(=O)[C@H](CCC(N)=O)NC(=O)[C@H](CC)NC(=O)[C@H](CC(C)C)NC(=O)[C@@H](NC(=O)[C@H](CCCN)NC(=O)[C@H](Cc1c[nH]cn1)NC(=O)[C@H](Cc1ccc(OC)cc1)NC(=O)[C@H](CCCCNC(=N)N)NC(=O)[C@H](C)NC(=O)[C@@H](NC(=O)[C@H](Cc1c(F)c(F)c(F)c(F)c1F)NC(=O)[C@@H](NC(=O)[C@H](C)NC(=O)[C@H](CC(=O)O)NC(=O)[C@@H](CCCNC(=N)N)NC(=O)[C@H](Cc1ccc(O)cc1)NC(=O)CCCCCCCCCCCNC(=O)Cc1ccccc1)[C@@H](C)CC)[C@@H](C)O)C(C)C)[C@@H](C)CC)C(=O)N[C@H](CCCNC(=N)N)C(=O)N[C@@H](CCCCNC(=N)N)C(N)=O [MIA-602, PhAC-Ada, Tyr D-Arg, Asp, Ala, Ile, 5FPhe, Thr, Ala, Har, Tyr(Me), His, Orn, Val, Leu, Abu, Gin, Leu, Ser, Ala, His, Om, Leu, Leu, Gin, Asp, Ile; Nle, D-Arg, Har NH2, reference compound] ({PhAc-12Ado}-Y[dR]DAI[Phe(F5)]TA[hArg]Y(Me)H[Orn]VL[Abu]QLSAH[Orn]LLQDI[Nle][dR][hArg]-NH2)
Relative GH release [1]: 0.78 ± 0.01 | Tumor Growth % [3]: 662.2% | % Inhibition [3]: 49.5%

CCCC[C@H](NC(=O)[C@@H](NC(=O)[C@H](CC(=O)O)NC(=O)[C@H](CCC(N)=O)NC(=O)[C@H](CC(C)C)NC(=O)[C@H](CC(C)C)NC(=O)[C@H](CCCCN)NC(=O)[C@H](CCCNC(=N)N)NC(=O)[C@H](C)NC(=O)[C@H](CO)NC(=O)[C@H](CC(C)C)NC(=O)[C@H](CCC(N)=O)NC(=O)[C@H](CC)NC(=O)[C@H](CC(C)C)NC(=O)[C@@H](NC(=O)[C@H](CCCCN)NC(=O)[C@H](CCCNC(=N)N)NC(=O)[C@H](Cc1c(F)c(F)c(F)c(F)c1F)NC(=O)[C@H](CCCCNC(=N)N)NC(=O)[C@H](C)NC(=O)[C@@H](NC(=O)[C@H](Cc1ccc(Cl)cc1)NC(=O)[C@@H](NC(=O)[C@H](C)NC(=O)[C@H](CC(=O)O)NC(=O)[C@@H](CCCNC(=N)N)NC(=O)[C@H](Cc1ccc(O)cc1)NC(=O)CCCCCCCCCCCNC(=O)Cc1c(F)c(F)c(F)c(F)c1F)[C@@H](C)CC)[C@@H](C)O)C(C)C)[C@@H](C)CC)C(=O)N[C@H](CCCNC(=N)N)C(=O)N[C@@H](CCCCNC(=N)N)C(=O)NCCCCCCCCCCCC(=O)NC [AVR-354] ({Phenylacetyl(2,3,4,5,6-F5)-12Ado}-Y[dR]DAI[Phe(4-Cl)]TA[hArg][Phe(F5)]RKVL[Abu]QLSARKLLQDI[Nle][dR][hArg][12Ado]-NHMe)
Relative GH release [1]: 0.90 ± 0.02 | binding affinity to membrane receptors of human pituitary cells (in words) [2]: higher binding affinity in comparison to MIA-602; also recorded: highest binding affinities
